Laboratory results as given in US20260022142A1, “MACROCYCLIC IMMUNOMODULATORS” (Bristol-Myers Squibb Company, priority 2022, published 2026).
Like-named read-outs stand apart in the source and are kept apart here. Bridge positions count the residues as written; N and C are the ends. Square brackets hold non-standard residues; d marks the D form. Peptide text beside a SMILES is read from it. * marks the point of attachment. Phe(4-CH2CH2COOH) = N[C@@H](Cc1ccc(CCC(=O)O)cc1)C(=O)O; Phe(4-CONH2) = NC(=O)c1ccc(C[C@H](N)C(=O)O)cc1; Phe(4-COOH) = N[C@@H](Cc1ccc(C(=O)O)cc1)C(=O)O; Bip = N[C@@H](Cc1ccc(-c2ccccc2)cc1)C(=O)O; Phe(4-NH2) = Nc1ccc(C[C@H](N)C(=O)O)cc1; Phe(3-F) = N[C@@H](Cc1cccc(F)c1)C(=O)O; Phe(3-Me) = Cc1cccc(C[C@H](N)C(=O)O)c1; Abu(3S-NH2) = C[C@H](N)[C@H](N)C(=O)O; His(τ-Me) = Cn1cnc(C[C@H](N)C(=O)O)c1; His(π-Me) = Cn1cncc1C[C@H](N)C(=O)O; Val(3-OH) = CC(C)(O)[C@H](N)C(=O)O; Val(3-F) = CC(C)(F)[C@H](N)C(=O)O; 3Pal = N[C@@H](Cc1cccnc1)C(=O)O; 4Pal = N[C@@H](Cc1ccncc1)C(=O)O; Cha = N[C@@H](CC1CCCCC1)C(=O)O; Carboxymethyl = O=C(O)C*; Orn = NCCC[C@H](N)C(=O)O; Aun = NCCCCCCCCCCC(=O)O; Dab = NCC[C@H](N)C(=O)O

Target: T1, PD-1/PD-L1 interaction (PE-labeled human PD-L1-Ig binding to Jurkat cell line over-expressing human PD-1) (Homo sapiens, UniProt Q15116)
T1 construct: expressed in transfected cells; host or cells: Jurkat
Test: Jurkat-PD-1 Cell Binding High-Content Screening Assay (CBA)
Format: cell-based
Settings: PE-labeled PD-L1-Ig 20 nM final
In short: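 Jurkat-hPD-1 cells, DMEM/10% FCS; cpd 2 h 37° C; PE-PD-L1-Ig 20 nM final, 1 h; 4% PFA fix + Hoechst 33342, 3× dPBS wash; high-content imaging read-out.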

[1] = Jurkat cell line over-expressing human PD-1, read-out: Jurkat hPD1-PDL1 IC50

T1 sequence (Q15116 25-288): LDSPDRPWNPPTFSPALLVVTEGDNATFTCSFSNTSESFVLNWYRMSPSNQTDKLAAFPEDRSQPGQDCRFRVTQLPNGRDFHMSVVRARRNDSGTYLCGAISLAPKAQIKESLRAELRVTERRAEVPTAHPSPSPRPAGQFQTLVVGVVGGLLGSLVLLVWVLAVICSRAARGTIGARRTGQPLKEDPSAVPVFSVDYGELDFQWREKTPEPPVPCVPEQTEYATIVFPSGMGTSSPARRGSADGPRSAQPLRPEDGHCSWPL

Compound	IC50 [1]	IC50 (Jurkat hPD1-PDL1 IC50, Jurkat cell line over-expressing human PD-1)
Cc1cccc(C[C@@H]2NC(=O)[C@H](CC(=O)O)NC(=O)[C@H](Cc3ccc(OCC(=O)O)cc3)NC(=O)[C@H](Cc3cncn3C)NC(=O)CSC[C@@H](C(=O)N[C@@H](CCN)C(=O)NCCCCCCCCCCC(=O)O)NC(=O)[C@H](CO)NC(=O)[C@H](C(C)(C)O)NC(=O)[C@H](CC3CCCCC3)NC(=O)[C@H](CCN)NC(=O)[C@@H](CC(C)C)NC(=O)[C@H](CCCN)NC(=O)[C@H](Cc3ccc(OCC(=O)O)cc3)NC(=O)[C@H](Cc3ccc(-c4ccccc4)cc3)NC(=O)[C@H](Cc3ccc(OCC(=O)O)cc3)NC2=O)c1 [Compound 2141] ({CH2CO}-[His(π-Me)]Y(Carboxymethyl)D[Phe(3-Me)]Y(Carboxymethyl)[Bip]Y(Carboxymethyl)[Orn][dL][Dab][Cha][Val(3-OH)]SC[Dab][Aun]-OH; thioether N-14)	10.9 nM	
Cc1cccc(C[C@@H]2NC(=O)[C@H](CC(=O)O)NC(=O)[C@H](Cc3ccc(OCC(=O)O)cc3)NC(=O)[C@H](Cc3ccncc3)NC(=O)CSC[C@@H](C(=O)N[C@@H](CCN)C(=O)NCCCCCCCCCCC(=O)O)NC(=O)[C@H]([C@H](C)N)NC(=O)[C@H](C(C)(C)O)NC(=O)[C@H](CC3CCCCC3)NC(=O)[C@H](CCN)NC(=O)[C@@H](CC(C)C)NC(=O)[C@H](CCCN)NC(=O)[C@H](Cc3ccc(OCC(=O)O)cc3)NC(=O)[C@H](Cc3ccc(-c4ccccc4)cc3)NC(=O)[C@H](Cc3ccc(OCC(=O)O)cc3)NC2=O)c1 [Compound 2142] ({CH2CO}-[4Pal]Y(Carboxymethyl)D[Phe(3-Me)]Y(Carboxymethyl)[Bip]Y(Carboxymethyl)[Orn][dL][Dab][Cha][Val(3-OH)][Abu(3S-NH2)]C[Dab][Aun]-OH; thioether N-14)	9.1 nM	
Cc1cccc(C[C@@H]2NC(=O)[C@H](CC(=O)O)NC(=O)[C@H](Cc3ccc(C(=O)O)cc3)NC(=O)[C@H](Cc3ccncc3)NC(=O)CSC[C@@H](C(=O)N[C@@H](CCN)C(=O)NCCCCCCCCCCC(=O)O)NC(=O)[C@H]([C@@H](C)O)NC(=O)[C@H](C(C)C)NC(=O)[C@H](CC(C)C)NC(=O)[C@H](CCN)NC(=O)[C@@H](CC(C)C)NC(=O)[C@H](CCCN)NC(=O)[C@H](Cc3ccc(OCC(=O)O)cc3)NC(=O)[C@H](Cc3ccc(-c4ccccc4)cc3)NC(=O)[C@H](Cc3ccc(OCC(=O)O)cc3)NC2=O)c1 [Compound 2143] ({CH2CO}-[4Pal][Phe(4-COOH)]D[Phe(3-Me)]Y(Carboxymethyl)[Bip]Y(Carboxymethyl)[Orn][dL][Dab]LVTC[Dab][Aun]-OH; thioether N-14)	12.6 nM	
Cc1cccc(C[C@@H]2NC(=O)[C@H](CC(=O)O)NC(=O)[C@H](Cc3ccc(CCC(=O)O)cc3)NC(=O)[C@H](CCN)NC(=O)CSC[C@@H](C(=O)N[C@@H](CCN)C(=O)NCCCCCCCCCCC(=O)O)NC(=O)[C@H](CO)NC(=O)[C@H](C(C)(C)O)NC(=O)[C@H](CC3CCCCC3)NC(=O)[C@H](CCN)NC(=O)[C@@H](CC(C)C)NC(=O)[C@H](CCCN)NC(=O)[C@H](Cc3ccc(OCC(=O)O)cc3)NC(=O)[C@H](Cc3ccc(-c4ccccc4)cc3)NC(=O)[C@H](Cc3cccc(F)c3)NC2=O)c1 [Compound 2144] ({CH2CO}-[Dab][Phe(4-CH2CH2COOH)]D[Phe(3-Me)][Phe(3-F)][Bip]Y(Carboxymethyl)[Orn][dL][Dab][Cha][Val(3-OH)]SC[Dab][Aun]-OH; thioether N-14)	7.3 nM	
Cc1cccc(C[C@@H]2NC(=O)[C@H](CC(=O)O)NC(=O)[C@H](Cc3ccc(OCC(=O)O)cc3)NC(=O)[C@H](CCCNC(=N)N)NC(=O)CSC[C@@H](C(=O)N[C@@H](CCN)C(=O)NCCCCCCCCCCC(=O)O)NC(=O)[C@H](CCC(N)=O)NC(=O)[C@H](C(C)(C)F)NC(=O)[C@H](CC3CCCCC3)NC(=O)[C@H](CCN)NC(=O)[C@@H](CC(C)C)NC(=O)[C@H](CCCN)NC(=O)[C@H](Cc3ccc(OCC(=O)O)cc3)NC(=O)[C@H](Cc3ccc(-c4ccccc4)cc3)NC(=O)[C@H](Cc3ccc(OCC(=O)O)cc3)NC2=O)c1 [Compound 2145] ({CH2CO}-RY(Carboxymethyl)D[Phe(3-Me)]Y(Carboxymethyl)[Bip]Y(Carboxymethyl)[Orn][dL][Dab][Cha][Val(3-F)]QC[Dab][Aun]-OH; thioether N-14)	2.1 nM	
Cc1cccc(C[C@@H]2NC(=O)[C@H](CC(=O)O)NC(=O)[C@H](Cc3ccc(OCC(=O)O)cc3)NC(=O)[C@H](Cc3ccc(C(N)=O)cc3)NC(=O)CSC[C@@H](C(=O)N[C@@H](CCN)C(=O)NCCCCCCCCCCC(=O)O)NC(=O)[C@H]([C@@H](C)O)NC(=O)[C@H](C(C)C)NC(=O)[C@H](CC3CCCCC3)NC(=O)[C@H](CCN)NC(=O)[C@@H](CC(C)C)NC(=O)[C@H](CCCN)NC(=O)[C@H](Cc3ccc(OCC(=O)O)cc3)NC(=O)[C@H](Cc3ccc(-c4ccccc4)cc3)NC(=O)[C@H](Cc3ccc(OCC(=O)O)cc3)NC2=O)c1 [Compound 2146] ({CH2CO}-[Phe(4-CONH2)]Y(Carboxymethyl)D[Phe(3-Me)]Y(Carboxymethyl)[Bip]Y(Carboxymethyl)[Orn][dL][Dab][Cha]VTC[Dab][Aun]-OH; thioether N-14)		13.2 nM
Cc1cccc(C[C@@H]2NC(=O)[C@H](CC(=O)O)NC(=O)[C@H](Cc3ccc(OCC(=O)O)cc3)NC(=O)[C@H](Cc3ccc(N)cc3)NC(=O)CSC[C@@H](C(=O)N[C@@H](CCN)C(=O)NCCCCCCCCCCC(=O)O)NC(=O)[C@H]([C@@H](C)O)NC(=O)[C@H](C(C)C)NC(=O)[C@H](CC3CCCCC3)NC(=O)[C@H](CCN)NC(=O)[C@@H](CC(C)C)NC(=O)[C@H](CCCN)NC(=O)[C@H](Cc3ccc(OCC(=O)O)cc3)NC(=O)[C@H](Cc3ccc(-c4ccccc4)cc3)NC(=O)[C@H](Cc3ccc(OCC(=O)O)cc3)NC2=O)c1 [Compound 2147] ({CH2CO}-[Phe(4-NH2)]Y(Carboxymethyl)D[Phe(3-Me)]Y(Carboxymethyl)[Bip]Y(Carboxymethyl)[Orn][dL][Dab][Cha]VTC[Dab][Aun]-OH; thioether N-14)	17.2 nM	
Cc1cccc(C[C@@H]2NC(=O)[C@H](CC(=O)O)NC(=O)[C@H](Cc3ccc(OCC(=O)O)cc3)NC(=O)[C@H](Cc3cncn3C)NC(=O)CSC[C@@H](C(=O)N[C@@H](CCN)C(=O)NCCCCCCCCCCC(=O)O)NC(=O)[C@H]([C@@H](C)O)NC(=O)[C@H](C(C)C)NC(=O)[C@H](CC3CCCCC3)NC(=O)[C@H](CCN)NC(=O)[C@@H](CC(C)C)NC(=O)[C@H](CCCN)NC(=O)[C@H](Cc3ccc(OCC(=O)O)cc3)NC(=O)[C@H](Cc3ccc(-c4ccccc4)cc3)NC(=O)[C@H](Cc3ccc(OCC(=O)O)cc3)NC2=O)c1 [Compound 2148] ({CH2CO}-[His(π-Me)]Y(Carboxymethyl)D[Phe(3-Me)]Y(Carboxymethyl)[Bip]Y(Carboxymethyl)[Orn][dL][Dab][Cha]VTC[Dab][Aun]-OH; thioether N-14)	25.4 nM	
Cc1cccc(C[C@@H]2NC(=O)[C@H](CC(=O)O)NC(=O)[C@H](Cc3ccc(OCC(=O)O)cc3)NC(=O)[C@H](Cc3cccnc3)NC(=O)CSC[C@@H](C(=O)N[C@@H](CCN)C(=O)NCCCCCCCCCCC(=O)O)NC(=O)[C@H](CO)NC(=O)[C@H](C(C)C)NC(=O)[C@H](CC3CCCCC3)NC(=O)[C@H](CCN)NC(=O)[C@@H](CC(C)C)NC(=O)[C@H](CCCN)NC(=O)[C@H](Cc3ccc(OCC(=O)O)cc3)NC(=O)[C@H](Cc3ccc(-c4ccccc4)cc3)NC(=O)[C@H](C(C)(C)O)NC2=O)c1 [Compound 2149] ({CH2CO}-[3Pal]Y(Carboxymethyl)D[Phe(3-Me)][Val(3-OH)][Bip]Y(Carboxymethyl)[Orn][dL][Dab][Cha]VSC[Dab][Aun]-OH; thioether N-14)	55.1 nM	
Cc1cccc(C[C@@H]2NC(=O)[C@H](CC(=O)O)NC(=O)[C@H](Cc3ccc(OCC(=O)O)cc3)NC(=O)[C@H](Cc3cn(C)cn3)NC(=O)CSC[C@@H](C(=O)N[C@@H](CCN)C(=O)NCCCCCCCCCCC(=O)O)NC(=O)[C@H](CO)NC(=O)[C@H](C(C)C)NC(=O)[C@H](CC3CCCCC3)NC(=O)[C@H](CCN)NC(=O)[C@@H](CC(C)C)NC(=O)[C@H](CCCN)NC(=O)[C@H](Cc3ccc(OCC(=O)O)cc3)NC(=O)[C@H](Cc3ccc(-c4ccccc4)cc3)NC(=O)[C@H](C(C)(C)O)NC2=O)c1 [Compound 2150] ({CH2CO}-[His(τ-Me)]Y(Carboxymethyl)D[Phe(3-Me)][Val(3-OH)][Bip]Y(Carboxymethyl)[Orn][dL][Dab][Cha]VSC[Dab][Aun]-OH; thioether N-14)	565 nM	
Cc1cccc(C[C@@H]2NC(=O)[C@H](CC(=O)O)NC(=O)[C@H](Cc3ccc(OCC(=O)O)cc3)NC(=O)[C@H](Cc3ccncc3)NC(=O)CSC[C@@H](C(=O)N[C@@H](CCN)C(=O)NCCCCCCCCCCC(=O)O)NC(=O)[C@H]([C@@H](C)O)NC(=O)[C@H](C(C)C)NC(=O)[C@H](CC3CCCCC3)NC(=O)[C@H](CCN)NC(=O)[C@@H](CC(C)C)NC(=O)[C@H](CCCN)NC(=O)[C@H](Cc3ccc(OCC(=O)O)cc3)NC(=O)[C@H](Cc3ccc(-c4ccccc4)cc3)NC(=O)[C@H](C(C)(C)O)NC2=O)c1 [Compound 2151] ({CH2CO}-[4Pal]Y(Carboxymethyl)D[Phe(3-Me)][Val(3-OH)][Bip]Y(Carboxymethyl)[Orn][dL][Dab][Cha]VTC[Dab][Aun]-OH; thioether N-14)	40.6 nM	
Cc1cccc(C[C@@H]2NC(=O)[C@H](CC(=O)O)NC(=O)[C@H](Cc3ccc(OCC(=O)O)cc3)NC(=O)[C@H](Cc3cncn3C)NC(=O)CSC[C@@H](C(=O)N[C@@H](CCN)C(=O)NCCCCCCCCCCC(=O)O)NC(=O)[C@H]([C@@H](C)O)NC(=O)[C@H](C(C)C)NC(=O)[C@H](CC3CCCCC3)NC(=O)[C@H](CCN)NC(=O)[C@@H](CC(C)C)NC(=O)[C@H](CCCN)NC(=O)[C@H](Cc3ccc(OCC(=O)O)cc3)NC(=O)[C@H](Cc3ccc(-c4ccccc4)cc3)NC(=O)[C@H](C(C)(C)O)NC2=O)c1 [Compound 2152] ({CH2CO}-[His(π-Me)]Y(Carboxymethyl)D[Phe(3-Me)][Val(3-OH)][Bip]Y(Carboxymethyl)[Orn][dL][Dab][Cha]VTC[Dab][Aun]-OH; thioether N-14)	73.6 nM	
